The record followed here is PMC10303271, “Synthesis and Receptor Binding Studies of α5 GABAAR Selective Novel Imidazodiazepines Targeted for Psychiatric and Cognitive Disorders” (Molecules, 2023).

One data set addresses T1, hERG channels (Homo sapiens, UniProt Q12809).
T1 construct: purchased NIMH Psychoactive Drug Screening Program (PDSP)
In words: PDSP radioligand binding at hERG. Conditions: primary binding, 10,000 nM; last figure of the line = mean of the 4 before it. The method, then:
(§1) To determine if any off-target receptor-binding effects are present, all the novel ligands were sent to the National Institute of Mental Health (NIMH), Psychoactive Drug Screening Program (PDSP). The ligands were screened over a panel of 47 receptors, ion channels, and transporters to determine any other possible interactions with […]. The hERG-binding was also determined. […] No binding of the test compounds to calcium channels was observed. […] It is necessary to screen the compounds for hERG-binding during the early process of drug discovery. The unintentional binding of many drugs to hERG can cause blockade of hERG K+ channels in the heart, which can cause many side effects including cardiac arrhythmias and sudden death. […] All of the α5 imidazodiazepines were tested for hERG-binding.
(§2) The NIMH PDSP assay protocol book [https://kidbdev.med.unc.edu/databases/PDSP%20Protocols%20II%202013-03-28.pdf accessed on 23 April 2023]. describes the protocols for primary and secondary radio-ligand binding assays. These assays were carried out in a final volume of 125 µL per well in the appropriate binding buffer.
(§3) The binding of a ligand to a receptor, ion channel, or transporter was determined in the […] of 10 µM of the appropriate reference compound. […] Plates were incubated in the dark for 90 min at rt, and the reactions were stopped by vacuum filtration onto 0.3% polyethyleneimine (PEI) soaked 96-well filter mats using a 96-well Filtermateharvester. This was followed by three washes with cold PBS buffer. Radioactivity was then counted on a Microbeta counter. Nonlinear regression was used to analyze the data with N = 6 replicates.
A general note: hERG is a cardiac potassium channel; its block is linked to QT prolongation.

A further data set addresses T2, 5-HT1D (Homo sapiens, UniProt P28221).
T2 construct: purchased NIMH Psychoactive Drug Screening Program (PDSP)
The data set can be described thus: PDSP primary binding 5-HT1D. The conditions noted are these: 1.5 h; primary binding, 10,000 nM; last figure of the line = mean of the 4 before it; read-out: 5-HT1D, PDSP raw data, mean. Here is the method: as §1, §2, §3

The target in a further data set is T3, A1 (Homo sapiens, UniProt P30542).
T3 construct: purchased NIMH Psychoactive Drug Screening Program (PDSP)
T3 sequence (P30542 1-326): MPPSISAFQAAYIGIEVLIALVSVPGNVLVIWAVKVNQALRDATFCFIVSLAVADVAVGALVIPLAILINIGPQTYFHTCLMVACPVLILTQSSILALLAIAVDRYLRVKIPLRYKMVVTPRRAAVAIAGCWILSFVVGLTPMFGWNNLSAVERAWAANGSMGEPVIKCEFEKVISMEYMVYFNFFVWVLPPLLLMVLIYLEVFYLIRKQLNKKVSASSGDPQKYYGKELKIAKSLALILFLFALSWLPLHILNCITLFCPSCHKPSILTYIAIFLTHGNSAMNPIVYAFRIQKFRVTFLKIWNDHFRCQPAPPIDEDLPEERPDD
In words: PDSP primary binding A1. The conditions noted are these: 1.5 h; primary binding, 10,000 nM; last figure of the line = mean of the 4 before it; read-out: A1, PDSP raw data, mean. Here is the method:
as §1, §2, §3

The next data set addresses T4, A2A (Homo sapiens, UniProt P29274).
T4 construct: purchased NIMH Psychoactive Drug Screening Program (PDSP)
In words: PDSP primary binding A2A. The conditions noted are these: primary binding, 10,000 nM; last figure of the line = mean of the 4 before it. Here is the method:
as §1, §2, §3

For another data set, the target named is T5, Alpha1A (Homo sapiens, UniProt P35348).
T5 construct: purchased NIMH Psychoactive Drug Screening Program (PDSP)
T5 sequence (P35348 1-466): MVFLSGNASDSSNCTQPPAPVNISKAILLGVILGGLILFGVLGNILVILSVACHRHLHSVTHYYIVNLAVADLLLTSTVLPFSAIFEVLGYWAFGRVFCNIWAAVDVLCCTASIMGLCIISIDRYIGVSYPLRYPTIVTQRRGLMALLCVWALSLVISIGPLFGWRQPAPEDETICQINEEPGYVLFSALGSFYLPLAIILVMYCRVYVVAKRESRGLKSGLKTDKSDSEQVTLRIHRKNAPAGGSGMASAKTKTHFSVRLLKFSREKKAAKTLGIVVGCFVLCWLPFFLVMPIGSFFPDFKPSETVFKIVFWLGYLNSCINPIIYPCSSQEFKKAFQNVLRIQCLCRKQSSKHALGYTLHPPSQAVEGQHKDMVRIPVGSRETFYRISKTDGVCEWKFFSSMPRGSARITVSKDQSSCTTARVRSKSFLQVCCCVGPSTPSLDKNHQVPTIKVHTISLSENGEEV
In words: PDSP primary binding Alpha1A. Conditions: 1.5 h; primary binding, 10,000 nM; last figure of the line = mean of the 4 before it; read-out: Alpha1A, PDSP raw data, mean. The method, then: as §1, §2, §3

For the next data set, the target named is T6, Alpha1B (Homo sapiens, UniProt P35368).
T6 construct: purchased NIMH Psychoactive Drug Screening Program (PDSP)
T6 sequence (P35368 1-520): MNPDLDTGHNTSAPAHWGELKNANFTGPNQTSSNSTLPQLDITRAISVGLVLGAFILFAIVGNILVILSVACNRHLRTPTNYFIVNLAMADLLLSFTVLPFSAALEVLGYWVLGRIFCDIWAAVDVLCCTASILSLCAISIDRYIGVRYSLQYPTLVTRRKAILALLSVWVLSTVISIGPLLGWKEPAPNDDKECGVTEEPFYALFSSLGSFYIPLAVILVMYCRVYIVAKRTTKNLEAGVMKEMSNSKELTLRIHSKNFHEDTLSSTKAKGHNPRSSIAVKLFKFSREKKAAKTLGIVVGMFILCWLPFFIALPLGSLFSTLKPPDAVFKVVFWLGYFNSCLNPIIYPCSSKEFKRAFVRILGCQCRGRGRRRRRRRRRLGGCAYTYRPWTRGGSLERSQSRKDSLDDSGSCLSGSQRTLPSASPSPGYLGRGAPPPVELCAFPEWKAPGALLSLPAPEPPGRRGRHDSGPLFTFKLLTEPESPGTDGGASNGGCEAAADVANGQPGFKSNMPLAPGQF
In words: PDSP primary binding Alpha1B. The conditions noted are these: 1.5 h; primary binding, 10,000 nM; last figure of the line = mean of the 4 before it; read-out: Alpha1B, PDSP raw data, mean. Here is the method: as §1, §2, §3

In a further data set the target is T7, H2 (Homo sapiens, UniProt P25021).
T7 construct: purchased NIMH Psychoactive Drug Screening Program (PDSP)
T7 sequence (P25021 whole entry): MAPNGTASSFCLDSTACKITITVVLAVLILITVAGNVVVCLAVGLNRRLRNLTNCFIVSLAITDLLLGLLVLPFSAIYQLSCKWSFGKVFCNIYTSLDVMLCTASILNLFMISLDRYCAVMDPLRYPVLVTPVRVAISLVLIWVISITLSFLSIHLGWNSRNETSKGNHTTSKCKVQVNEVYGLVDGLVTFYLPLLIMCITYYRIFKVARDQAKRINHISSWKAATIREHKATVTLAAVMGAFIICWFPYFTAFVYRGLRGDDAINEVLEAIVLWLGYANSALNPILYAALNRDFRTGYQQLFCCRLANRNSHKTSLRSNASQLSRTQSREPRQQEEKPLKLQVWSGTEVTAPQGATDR
In words: PDSP primary binding H2. Conditions: primary binding, 10,000 nM; last figure of the line = mean of the 4 before it; read-out: H2, PDSP raw data, mean. The method, then: as §1, §2, §3

A further data set relates to Kainate (Rat Brain). The data set can be described thus: PDSP primary binding Kainate (Rat Brain). Conditions: primary binding, 10,000 nM; last figure of the line = mean of the 4 before it. The method, then: as §1, §2, §3
The target of another data set is T8, Alpha4Beta2 (Rat Brain) (Rattus norvegicus, UniProt P09483+P12390).
T8 construct: purchased NIMH Psychoactive Drug Screening Program (PDSP)
T8 sequence (P09483 31-630): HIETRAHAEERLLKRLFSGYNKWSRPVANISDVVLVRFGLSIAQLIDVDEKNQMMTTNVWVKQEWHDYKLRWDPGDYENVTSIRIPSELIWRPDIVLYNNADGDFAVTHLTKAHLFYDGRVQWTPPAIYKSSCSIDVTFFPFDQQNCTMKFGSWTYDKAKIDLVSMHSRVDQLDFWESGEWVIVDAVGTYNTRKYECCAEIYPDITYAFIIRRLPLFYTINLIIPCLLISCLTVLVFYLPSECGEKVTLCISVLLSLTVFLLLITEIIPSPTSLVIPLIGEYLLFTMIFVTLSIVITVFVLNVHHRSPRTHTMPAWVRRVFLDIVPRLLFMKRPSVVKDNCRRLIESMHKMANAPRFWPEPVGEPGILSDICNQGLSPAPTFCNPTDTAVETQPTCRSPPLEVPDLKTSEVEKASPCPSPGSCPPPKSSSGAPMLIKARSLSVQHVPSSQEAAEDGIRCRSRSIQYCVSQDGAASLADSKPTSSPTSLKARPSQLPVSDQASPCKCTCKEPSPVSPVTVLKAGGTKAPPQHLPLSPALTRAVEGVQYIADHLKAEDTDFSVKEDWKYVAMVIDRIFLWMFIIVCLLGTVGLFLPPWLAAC
T8 sequence (P12390 25-500): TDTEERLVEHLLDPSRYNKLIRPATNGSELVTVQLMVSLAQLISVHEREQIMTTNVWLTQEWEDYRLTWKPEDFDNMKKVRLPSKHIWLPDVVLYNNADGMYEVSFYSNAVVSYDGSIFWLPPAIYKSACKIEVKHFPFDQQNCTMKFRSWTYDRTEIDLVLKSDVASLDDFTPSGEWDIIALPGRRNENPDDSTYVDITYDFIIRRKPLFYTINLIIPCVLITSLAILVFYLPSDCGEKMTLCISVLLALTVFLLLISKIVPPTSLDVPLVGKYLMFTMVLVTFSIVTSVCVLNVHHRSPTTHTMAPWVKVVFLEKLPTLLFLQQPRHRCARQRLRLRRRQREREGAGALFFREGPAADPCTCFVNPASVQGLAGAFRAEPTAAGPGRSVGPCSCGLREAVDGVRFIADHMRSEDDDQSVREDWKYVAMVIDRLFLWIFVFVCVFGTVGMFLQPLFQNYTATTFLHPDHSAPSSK
The data set can be described thus: PDSP primary binding Alpha4Beta2 (Rat Brain). The conditions noted are these: primary binding, 10,000 nM; last figure of the line = mean of the 4 before it; read-out: Alpha4Beta2 (Rat Brain), PDSP raw data, mean. The method, then:
as §1, §2, §3

The next data set addresses T9, V1A (Homo sapiens, UniProt P37288).
T9 construct: purchased NIMH Psychoactive Drug Screening Program (PDSP)
The data set can be described thus: PDSP primary binding V1A. Conditions: primary binding, 10,000 nM; last figure of the line = mean of the 4 before it; read-out: V1A, PDSP raw data, mean. Here is the method:
as §1, §2, §3

Molecules are shown by their SMILES.

T2 sequence (P28221 whole entry): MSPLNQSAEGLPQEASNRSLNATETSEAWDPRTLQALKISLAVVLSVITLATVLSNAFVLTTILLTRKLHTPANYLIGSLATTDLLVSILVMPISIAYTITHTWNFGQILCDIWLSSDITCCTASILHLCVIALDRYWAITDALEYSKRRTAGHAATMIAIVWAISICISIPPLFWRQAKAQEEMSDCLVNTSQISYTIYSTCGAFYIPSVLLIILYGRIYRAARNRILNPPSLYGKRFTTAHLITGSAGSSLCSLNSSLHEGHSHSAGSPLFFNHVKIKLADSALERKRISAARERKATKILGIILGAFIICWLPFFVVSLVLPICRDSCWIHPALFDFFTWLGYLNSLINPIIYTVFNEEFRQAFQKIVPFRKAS
T1 sequence (Q12809 whole entry): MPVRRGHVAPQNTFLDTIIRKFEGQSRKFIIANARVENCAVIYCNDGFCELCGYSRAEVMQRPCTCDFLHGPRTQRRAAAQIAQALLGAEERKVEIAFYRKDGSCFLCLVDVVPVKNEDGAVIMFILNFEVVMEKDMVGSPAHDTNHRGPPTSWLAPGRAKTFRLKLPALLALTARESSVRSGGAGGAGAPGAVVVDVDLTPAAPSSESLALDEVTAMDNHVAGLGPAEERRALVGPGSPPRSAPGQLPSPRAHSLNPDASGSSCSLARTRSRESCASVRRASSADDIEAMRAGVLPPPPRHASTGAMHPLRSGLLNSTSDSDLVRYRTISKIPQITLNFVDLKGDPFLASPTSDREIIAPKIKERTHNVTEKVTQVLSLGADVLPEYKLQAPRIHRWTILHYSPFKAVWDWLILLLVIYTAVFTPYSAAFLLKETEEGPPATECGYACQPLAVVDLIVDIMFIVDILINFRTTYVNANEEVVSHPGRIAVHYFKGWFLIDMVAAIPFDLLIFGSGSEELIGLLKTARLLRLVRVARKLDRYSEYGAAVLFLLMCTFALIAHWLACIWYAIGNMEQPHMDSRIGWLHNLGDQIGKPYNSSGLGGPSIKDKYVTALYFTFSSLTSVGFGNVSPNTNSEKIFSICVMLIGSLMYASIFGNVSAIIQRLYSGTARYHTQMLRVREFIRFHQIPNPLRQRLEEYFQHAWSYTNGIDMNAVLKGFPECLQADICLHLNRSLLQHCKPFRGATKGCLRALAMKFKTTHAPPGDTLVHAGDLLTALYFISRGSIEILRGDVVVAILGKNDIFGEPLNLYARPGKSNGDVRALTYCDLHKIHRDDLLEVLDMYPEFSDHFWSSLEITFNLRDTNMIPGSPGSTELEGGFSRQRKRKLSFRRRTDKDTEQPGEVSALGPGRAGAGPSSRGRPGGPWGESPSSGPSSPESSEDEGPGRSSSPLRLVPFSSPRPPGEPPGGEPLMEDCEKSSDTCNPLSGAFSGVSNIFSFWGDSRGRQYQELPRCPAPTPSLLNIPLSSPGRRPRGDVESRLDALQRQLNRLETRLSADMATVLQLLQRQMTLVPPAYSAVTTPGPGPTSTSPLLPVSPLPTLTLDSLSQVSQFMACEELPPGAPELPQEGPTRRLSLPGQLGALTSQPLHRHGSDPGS
T4 sequence (P29274 whole entry): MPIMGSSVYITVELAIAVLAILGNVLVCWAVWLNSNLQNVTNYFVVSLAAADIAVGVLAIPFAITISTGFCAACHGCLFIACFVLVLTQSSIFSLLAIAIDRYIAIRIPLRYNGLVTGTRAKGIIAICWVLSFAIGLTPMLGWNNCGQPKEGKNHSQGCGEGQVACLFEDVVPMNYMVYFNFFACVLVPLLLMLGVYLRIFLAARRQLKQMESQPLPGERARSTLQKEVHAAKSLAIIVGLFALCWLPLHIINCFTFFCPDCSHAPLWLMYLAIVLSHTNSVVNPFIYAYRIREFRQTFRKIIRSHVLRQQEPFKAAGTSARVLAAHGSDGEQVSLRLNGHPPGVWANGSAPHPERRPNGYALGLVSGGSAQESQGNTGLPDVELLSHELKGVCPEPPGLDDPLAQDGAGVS
T9 sequence (P37288 whole entry): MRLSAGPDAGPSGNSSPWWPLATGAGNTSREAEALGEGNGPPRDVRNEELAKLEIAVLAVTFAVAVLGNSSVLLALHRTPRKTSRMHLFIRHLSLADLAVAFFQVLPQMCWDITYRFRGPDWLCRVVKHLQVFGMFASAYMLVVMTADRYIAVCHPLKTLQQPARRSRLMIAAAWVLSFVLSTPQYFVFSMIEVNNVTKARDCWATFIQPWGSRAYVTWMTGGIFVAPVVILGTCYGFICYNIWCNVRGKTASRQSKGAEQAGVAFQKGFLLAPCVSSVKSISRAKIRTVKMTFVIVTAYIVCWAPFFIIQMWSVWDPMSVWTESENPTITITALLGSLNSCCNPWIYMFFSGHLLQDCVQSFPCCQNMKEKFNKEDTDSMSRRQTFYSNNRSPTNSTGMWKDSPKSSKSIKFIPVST

As for `CCc1noc(-c2ncn3c2[C@@H](C)N=C(c2ccccc2F)c2cc(Cl)ccc2-3)n1` [Compound 36, (R)-5-(8-Chloro-6-(2′-fluorophenyl)-4-methyl-4H-benzo[f]imidazo[1,5-a][1,4]diazepin-3-yl)-3-ethyl-1,2,4-oxadiazole], the “HERG, PDSP raw data, mean” value at hERG channels was -1.15%. The inhibition at 10 µM on 5-HT1D was -1.16%; on A1, 67.9%; at Alpha1A it was -0.34%; at Alpha1B, -0.79%; on H2 it was 5.61%; on Alpha4Beta2 (Rat Brain) it was 3.25%. The inhibition at 10 µM on V1A came out at 27.6%. Moreover, the “A2A, PDSP raw data, mean” value at A2A is listed as 1.43%. In addition, the “Kainate (Rat Brain), PDSP raw data, mean” value in the data set with Kainate (Rat Brain) was found to be 42.86%.

On to `C[C@H]1N=C(c2ccccc2F)c2cc(-c3ccccc3)ccc2-n2cnc(C(=O)N(C)C)c21` [Compound 5, (R)-6-(2′-Fluorophenyl)-N,N,4-trimethyl-8-phenyl-4H-benzo[f]imidazo[1,5-a][1,4]diazepine-3-carboxamide], for which the “HERG, PDSP raw data, mean” value at hERG channels was -0.48%. The inhibition at 10 µM was -3.41% at 5-HT1D; 25.9% at A1; -4.47% on Alpha1A; -15.3% on Alpha1B; -1.42% at H2; -5.7% on Alpha4Beta2 (Rat Brain). Also, the inhibition at 10 µM at V1A was 15.6%. Besides, the “A2A, PDSP raw data, mean” value at A2A is reported as 11.57%. The “Kainate (Rat Brain), PDSP raw data, mean” value with Kainate (Rat Brain) worked out at 3.43%.

Turning to `C[C@H]1N=C(c2ccccc2F)c2cc(Cl)ccc2-n2cnc(-c3nc(C4CC4)no3)c21` [Compound 38, (R)-5-(8-Chloro-6-(2′-fluorophenyl)-4-methyl-4H-benzo[f]imidazo[1,5-a][1,4]diazepin-3-yl)-3-cyclopropyl-1,2,4-oxadiazole], the “HERG, PDSP raw data, mean” value on hERG channels amounted to 9.37%. Besides, the inhibition at 10 µM is 7.31% at 5-HT1D; 55.5% on A1; 1.65% at Alpha1A; 10.8% at Alpha1B; 6.81% on H2; 0.48% at Alpha4Beta2 (Rat Brain). Also, on V1A, the inhibition at 10 µM amounted to 4.3%. Also, the “A2A, PDSP raw data, mean” value at A2A is on record as 19.95%. The “Kainate (Rat Brain), PDSP raw data, mean” value in the data set on Kainate (Rat Brain) is listed as 36.46%.

Regarding `C#Cc1ccc2c(c1)C(c1ccccc1F)=N[C@H](C)c1c(C(=S)N(C)C)ncn1-2` [Compound 33, (R)-8-Ethynyl-6-(2′-fluorophenyl)-N,N,4-trimethyl-4H-benzo[f]imidazo[1,5-a][1,4]diazepine-3-carbothioamide], on hERG channels, the “HERG, PDSP raw data, mean” value is -0.48%. In addition, the inhibition at 10 µM on 5-HT1D was -3.41%; on A1 it was 25.9%; on Alpha1A, -4.47%; on Alpha1B, -15.3%; on H2 it was -1.42%; at Alpha4Beta2 (Rat Brain), -5.7%. Moreover, at V1A, the inhibition at 10 µM amounted to 15.6%. Moreover, at A2A, the “A2A, PDSP raw data, mean” value is 11.57%. Further, the “Kainate (Rat Brain), PDSP raw data, mean” value in the data set on Kainate (Rat Brain) was determined as 3.43%.

For `C#Cc1ccc2c(c1)C(c1ccccc1Cl)=N[C@H](C)c1c(C(=O)NC)ncn1-2` [Compound 21, (R)-6-(2′-Chlorophenyl)-8-ethynyl-N,4-dimethyl-4H-benzo[f]imidazo[1,5-a][1,4]diazepine-3-carboxamide], the “HERG, PDSP raw data, mean” value on hERG channels is -5.73%. In addition, the inhibition at 10 µM on 5-HT1D was -9.02%; at A1, -13.3%; at Alpha1A, -5.44%; at Alpha1B it was -6.66%; on H2, -2.07%; at Alpha4Beta2 (Rat Brain), 0.7%. Further, the inhibition at 10 µM at V1A was 35.1%. Moreover, on A2A, the “A2A, PDSP raw data, mean” value was -13.5%. In the data set with Kainate (Rat Brain), the “Kainate (Rat Brain), PDSP raw data, mean” value was -4.58%.

Regarding `CCc1noc(-c2ncn3c2[C@@H](C)N=C(c2ccccc2F)c2cc(C4CC4)ccc2-3)n1` [Compound 46, (R)-5-(8-Cyclopropyl-6-(2′-fluorophenyl)-4-methyl-4H-benzo[f]imidazo[1,5-a][1,4]diazepin-3-yl)-3-ethyl-1,2,4-oxadiazole], the “HERG, PDSP raw data, mean” value on hERG channels is listed as 4.34%. Moreover, the inhibition at 10 µM on 5-HT1D was 17.7%; at A1, 30.9%; at Alpha1A it was 31.8%; on Alpha1B, 9.31%; on H2 it was 6.98%; on Alpha4Beta2 (Rat Brain), -5.79%. The inhibition at 10 µM at V1A was -6.74%. Besides, on A2A, the “A2A, PDSP raw data, mean” value worked out at 27.25%. Moreover, the “Kainate (Rat Brain), PDSP raw data, mean” value with Kainate (Rat Brain) is given as 38.21%.

Turning to `CCc1noc(-c2ncn3c2CN=C(c2ccccc2F)c2cc(C4CC4)ccc2-3)n1` [Compound 44, 5-(8-Cyclopropyl-6-(2′-fluorophenyl)-4H-benzo[f]imidazo[1,5-a][1,4]diazepin-3-yl)-3-ethyl-1,2,4-oxadiazole], the “HERG, PDSP raw data, mean” value on hERG channels amounted to 33.24%. The inhibition at 10 µM is 67.4% on 5-HT1D; 48.2% at A1; 21.4% at Alpha1A; 6.87% on Alpha1B; 1.55% on H2; -0.99% on Alpha4Beta2 (Rat Brain). The inhibition at 10 µM on V1A was 21.3%. Moreover, the “A2A, PDSP raw data, mean” value on A2A stood at 21.36%. Besides, the “Kainate (Rat Brain), PDSP raw data, mean” value with Kainate (Rat Brain) came to 42.42%.
